Several values for one entry are separate records, joined by “and”; a condition that tells them apart may be missing. Equal values may be shown once.
Tested on: NCI-H358 (K-Ras G12C)
Test: CellTiter-Glo cell viability assay, NCI-H358
Format: cell-based, human
Conditions: Homo sapiens, NCI-H358, Table 5; read-out: H358 Cell Viability assay data (K-Ras G12C, IC50)
Method in brief: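 Compounds dispensed directly onto plated NCI-H358 cells; plates equilibrated to room temperature on day 5 before luminescence read-out. Signal normalized to mean DMSO control (%) and fitted by four-parameter logistic.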

Compound	IC50 [µM]
C=CC(=O)N1CC[C@H](C(=O)N(C)[C@H](C(=O)N[C@H]2Cc3cc(O)cc(c3)-c3ccc4c(c3)c(c(-c3cnn(C)c3[C@H](C)OC)n4CC)CC(C)(C)COC(=O)[C@@H]3CCCN(N3)C2=O)C(C)C)C1 [Compound A166]	< 0.01
CCn1c(-c2cccnc2[C@H](C)OC)c2c3cc(ccc31)N1CCO[C@@H](C[C@H](NC(=O)[C@H](C(C)C)N3CC[C@@]4(CCN(C(=O)C#CC(C)(C)N(C)C)C4)C3=O)C(=O)N3CCC[C@H](N3)C(=O)OCC(C)(C)C2)C1 (atropisomer, axis not shown) [Compound A614]	0.01 to 0.1
C=CC(=O)N1CC[C@H](C(=O)N(C)C(C(=O)N[C@H]2C[C@H]3CN(CCO3)c3ccc4c(c3)c(c(-c3cccnc3[C@H](C)OC)n4CC)CC(C)(C)COC(=O)[C@@H]3CCCN(N3)C2=O)C(C)C)C1 (some centres unmarked) [Compound A507]	0.1 to 1
C=CC(=O)N1CC[C@@H](C(=O)N(C)[C@H](C(=O)N[C@H]2Cc3cccc(c3)-c3ccc4c(c3)c(c(-c3cccnc3[C@H](C)OC)n4CC)CC(C)(C)COC(=O)[C@@H]3CCCN(N3)C2=O)C(C)C)C1 (atropisomer, axis not shown) [Compound A488]	< 0.01
C=CC(=O)N1CC[C@H](C(=O)N(C)[C@H](C(=O)N[C@H]2Cc3cccc(c3)-c3ccc4c(c3)c(c(-c3cccnc3[C@H](C)OC)n4CC)CC(C)(C)COC(=O)[C@@H]3CCCN(N3)C2=O)C(C)C)C1 [Compound A114]	0.1 to 1

Same assay, conditions: Homo sapiens, NCI-H358, read-out: H358 Cell Viability assay data (K-Ras G12C, IC50, uM), Table 5

Compound	IC50 [µM]
C=CC(=O)Nc1cnc(C(=O)N(C)[C@H](C(=O)N[C@H]2Cc3cccc(c3)-c3ccc4c(c3)c(c(-c3cccnc3[C@H](C)OC)n4CC)CC(C)(C)COC(=O)[C@@H]3CCCN(N3)C2=O)C(C)C)n1C (atropisomer, axis not shown) [Compound A525]	< 0.01
C=CC(=O)N1CC[C@H](C(=O)N(C)[C@H](C(=O)N[C@H]2Cc3cc(O)cc(c3)-c3ccc4c(c3)c(c(-c3cc(CN(C)C)cnc3[C@H](C)OC)n4CC)CC(C)(C)COC(=O)[C@@H]3CCCN(N3)C2=O)C(C)C)C1 (single isomer, unassigned) [Compound A537]	< 0.01
C=CC(=O)Nc1ccc(C(=O)N(C)[C@H](C(=O)N[C@H]2Cc3cc(O)cc(c3)-c3ccc4c(c3)c(c(-c3cccnc3[C@H](C)OC)n4CC)CC(C)(C)COC(=O)[C@@H]3CCCN(N3)C2=O)C(C)C)cn1 [Compound A250]	< 0.01
CCn1c(-c2cccnc2[C@H](C)OC)c2c3cc(ccc31)-c1csc(n1)C[C@H](NC(=O)[C@H](C(C)C)N(C)C(=O)N1CC(N(C)C(=O)C#CC(C)(C)N3CCC3)C1)C(=O)N1CCC[C@H](N1)C(=O)OCC(C)(C)C2 [Compound A379]	< 0.01
CCn1c(-c2cccnc2[C@H](C)OC)c2c3cc(ccc31)-c1cccc(c1)C[C@H](NC(=O)[C@H](C(C)C)N(C)C(=O)[C@H]1CCN(C(=O)C#CCN(C)C)C1)C(=O)N1CCC[C@H](N1)C(=O)OCC(C)(C)C2 (atropisomer, axis not shown) [Compound A121]	< 0.01
C=CS(=O)(=O)N1CC[C@H](C(=O)N(C)[C@H](C(=O)N[C@H]2Cc3cc(O)cc(c3)-c3ccc4c(c3)c(c(-c3cccnc3[C@H](C)OC)n4CC)CC(C)(C)COC(=O)[C@@H]3CCCN(N3)C2=O)C(C)C)C1 [Compound A132]	< 0.01

Same assay, conditions: Table 5; read-out: H358 Cell Viability assay data (K-Ras G12C, IC50)

Compound	IC50
C=CC(=O)N1CCC(F)(C(=O)N(C)[C@H](C(=O)N[C@H]2Cc3cc(O)cc(c3)-c3ccc4c(c3)c(c(-c3ccccc3CCOC)n4CC)CC(C)(C)COC(=O)[C@@H]3CCCN(N3)C2=O)C(C)C)CC1 [Compound A11]	0.1 to 1 µM
C=CC(=O)N1CC[C@H](C(=O)N(C)[C@H](C(=O)N[C@H]2Cc3cc(O)cc(c3)-c3ccc4c(c3)c(c(-c3cccnc3CN(C)C)n4CC)CC(C)(C)COC(=O)[C@@H]3CCCN(N3)C2=O)C(C)C)C1 [Compound A92]	0.1 to 1 µM
C=CC(=O)N1CC[C@H](C(=O)N(C)[C@H](C(=O)N[C@H]2Cc3cc(O)cc(c3)-c3ccc4c(c3)c(c(-c3cccnc3COC)n4C)CC(C)(C)COC(=O)[C@@H]3CCCN(N3)C2=O)C(C)C)C1 [Compound A66]	0.01 to 0.1 µM
C=CC(=O)N1CC[C@H](C(=O)N(C)[C@H](C(=O)N[C@H]2Cc3cc(O)cc(c3)-c3ccc4c(c3)c(c(-c3ccc(CN5CC[C@@H](O)C5)cc3)n4CC)CC(C)(C)COC(=O)[C@@H]3CCCN(N3)C2=O)C(C)C)C1 [Examples A1]	0.1 to 1 µM
C=CC(=O)N1CC[C@H](C(=O)N(C)[C@H](C(=O)N[C@H]2Cc3cc(O)cc(c3)-c3ccc4c(c3)c(c(-c3cccnc3COCC)n4CC)CC(C)(C)COC(=O)[C@@H]3CCCN(N3)C2=O)C(C)C)C1 [Compound A44]	0.01 to 0.1 µM
CCn1c(-c2cncnc2C(C)C)c2c3cc(ccc31)-c1cc(O)cc(c1)C[C@H](NC(=O)[C@H](C(C)C)N(C)C(=O)[C@H]1CCN(C(=O)C#CCN(C)C)C1)C(=O)N1CCC[C@H](N1)C(=O)OCC(C)(C)C2 [Compound A155]	< 0.01 µM and 0.01 to 0.1 µM
C=CC(=O)N1CC[C@H](C(=O)N(C)[C@H](C(=O)N[C@H]2Cc3cc(O)cc(c3)-c3ccc4c(c3)c(c(-c3cncnc3)n4CC)CC(C)(C)COC(=O)[C@@H]3CCCN(N3)C2=O)C(C)C)C1 [Compound A61]	0.01 to 0.1 µM
C=CC(=O)N1CC[C@H](C(=O)N(C)[C@H](C(=O)N[C@H]2Cc3cc(O)cc(c3)-c3ccc4c(c3)c(c(-c3ccc(N5CCN(C)CC5)nc3)n4CC)CC(C)(C)COC(=O)[C@@H]3CCCN(N3)C2=O)C(C)C)C1 [Compound A89, (2S)-N-[(8S,14S)-22-ethyl-4-hydroxy-18,18-dimethyl-21-[6-(4-methylpiperazin-1-yl)pyridin-3-yl]-9,15-dioxo-16-oxa-10,22,28-triazapentacyclo[18.5.2.1^2,^6.1^10,^14.0^23,^27]nonacosa-1(26),2,4,6(29),20,23(27),24-heptaen-8-yl]-3-methyl-2-{N-methyl-1-[(3S)-1-(prop-2-enoyl)pyrrolidin-3-yl]formamido}butanamide]	0.01 to 0.1 µM
C=CC(=O)N1CC[C@H](C(=O)N(C)[C@H](C(=O)N[C@H]2Cc3cc(O)cc(c3)-c3ccc4c(c3)c(c(C3=C(COC)COCC3)n4CC)CC(C)(C)COC(=O)[C@@H]3CCCN(N3)C2=O)C(C)C)C1 [Compound A58]	0.01 to 0.1 µM
C=CC(=O)N1CC[C@H](C(=O)N(C)[C@H](C(=O)N[C@H]2Cc3cc(O)cc(c3)-c3ccc4c(c3)c(c(-c3ccccc3N3CCOCC3)n4CC)CC(C)(C)COC(=O)[C@@H]3CCCN(N3)C2=O)C(C)C)C1 [Compound A26]	0.1 to 1 µM
C=CC(=O)N1CC[C@H](C(=O)N(C)[C@H](C(=O)N[C@H]2Cc3cc(O)cc(c3)-c3ccc4c(c3)c(c(-c3ccncc3)n4C(C)(C)C#N)CC(C)(C)COC(=O)[C@@H]3CCCN(N3)C2=O)C(C)C)C1 [Compound A86]	0.01 to 0.1 µM
C=CC(=O)N1CC[C@H](C(=O)N(C)[C@H](C(=O)N[C@H]2Cc3cc(O)cc(c3)-c3ccc4c(c3)c(c(-c3cnn(C)c3)n4CC)CC(C)(C)COC(=O)[C@@H]3CCCN(N3)C2=O)C(C)C)C1 [Compound A99]	0.01 to 0.1 µM
CCn1c(-c2cccnc2[C@H](C)OC)c2c3cc(ccc31)-c1csc(n1)C[C@H](NC(=O)[C@H](C(C)C)N(C)C(=O)N1C[C@H]3CN(C(=O)C#CC(C)(C)N(C)C)CC[C@H]31)C(=O)N1CCC[C@H](N1)C(=O)OCC(C)(C)C2 (atropisomer, axis not shown) [Compound A624]	< 0.01 µM
C=CC(=O)N1C[C@H](C)[C@H](C(=O)N(C)[C@H](C(=O)N[C@H]2Cc3cc(O)cc(c3)-c3ccc4c(c3)c(c(-c3cccnc3COC)n4CC)CC(C)(C)COC(=O)[C@@H]3CCCN(N3)C2=O)C2CCCC2)C1 [Compound A57]	< 0.01 µM
C=CC(=O)N1CCC(C(=O)N(C)[C@H](C(=O)N[C@H]2Cc3cc(O)cc(c3)-c3ccc4c(c3)c(c(-c3ccccc3CN(C)C)n4CC)CC(C)(C)COC(=O)[C@@H]3CCCN(N3)C2=O)C(C)C)CC1 [Compound A33]	0.1 to 1 µM
C=CC(=O)N1CCC(F)(C(=O)N(C)[C@H](C(=O)N[C@H]2Cc3cc(O)cc(c3)-c3ccc4c(c3)c(c(-c3ccccc3CN(C)C)n4CC)CC(C)(C)COC(=O)[C@@H]3CCCN(N3)C2=O)C(C)C)CC1 [Compound A20]	0.01 to 0.1 µM
C=CC(=O)N1CC[C@H](C(=O)N(C)[C@H](C(=O)N[C@H]2Cc3cc(O)cc(c3)-c3ccc4c(c3)c(c([C@@H]3CC=CN=C3COC)n4CC)CC(C)(C)COC(=O)[C@@H]3CCCN(N3)C2=O)C(C)C)C1 [Compound A65]	0.1 to 1 µM
C=CC(=O)N1CC[C@H](C(=O)N(C)[C@H](C(=O)N[C@H]2Cc3cc(O)cc(c3)-c3ccc4c(c3)c(c(-c3cnccc3COC)n4CC)CC(C)(C)COC(=O)[C@@H]3CCCN(N3)C2=O)C(C)C)C1 [Compound A91]	< 0.01 µM
C=CC(=O)N1CC[C@H](C(=O)N(C)[C@H](C(=O)N[C@H]2Cc3cc(O)cc(c3)-c3ccc4c(c3)c(c(-c3cccnc3COC)n4CC#N)CC(C)(C)COC(=O)[C@@H]3CCCN(N3)C2=O)C(C)C)C1 [Compound A93]	0.01 to 0.1 µM
C=CC(=O)N1CC[C@H](C(=O)N(C)[C@H](C(=O)N[C@H]2Cc3cc(OC(=O)CN)cc(c3)-c3ccc4c(c3)c(c(-c3ccccc3CCOC)n4CC)CC(C)(C)COC(=O)[C@@H]3CCCN(N3)C2=O)C(C)C)C1 [Compound A8]	0.1 to 1 µM
CCn1c(-c2cccnc2COC)c2c3cc(ccc31)-c1cc(O)cc(c1)C[C@H](NC(=O)[C@H](C(C)C)N(C)C(=O)[C@H]1CCN(C(=O)C#CCN(C)C)C1)C(=O)N1CCC[C@H](N1)C(=O)OCC(C)(C)C2 [Compound A96]	< 0.01 µM
C=CC(=O)N1CC[C@H](C(=O)N(C)[C@H](C(=O)N[C@H]2Cc3cc(O)cc(c3)-c3ccc4c(c3)c(c(-c3cccc(CN(C)C)c3)n4CC)CC(C)(C)COC(=O)[C@@H]3CCCN(N3)C2=O)C(C)C)C1 [Compound A30]	0.01 to 0.1 µM
C=CC(=O)N1CC[C@H](C(=O)N(C)[C@H](C(=O)N[C@H]2Cc3cc(O)cc(c3)-c3ccc4c(c3)c(c(-c3ccc(C5CCN(C)CC5)nc3)n4CC)CC(C)(C)COC(=O)[C@@H]3CCCN(N3)C2=O)C(C)C)C1 [Compound A98]	0.01 to 0.1 µM

Same assay, conditions: read-out: H358 Cell Viability assay data (K-Ras G12C, IC50); Table 5

Compound	IC50 [µM]
C=CC(=O)N1CCN(C(=O)N(C)[C@H](C(=O)N[C@H]2Cc3nc(cs3)-c3ccc4c(c3)c(c(-c3cccnc3[C@H](C)OC)n4CC(F)(F)F)CC(C)(C)COC(=O)[C@@H]3CCCN(N3)C2=O)C(C)C)CC1 [Compound A465]	< 0.01

— patent EP4806900A2, “RAS INHIBITORS” (Revolution Medicines, Inc., priority 2019, dated 2021)
